ChEMBL document CHEMBL6134913, “Novel Emopamil-Binding Protein Inhibitors for Treating Multiple Sclerosis” (ACS Med Chem Lett, 2025)

Target: 3-beta-hydroxysteroid-Delta(8),Delta(7)-isomerase (Homo sapiens, UniProt Q15125)
Assay: Displacement of [3H]ifenprodil from FLAG-tagged EBP (unknown origin) overexpressing human Expi293F cells measured after 20 mins by Microbeta microplate counter
Type: cell-based

3-beta-hydroxysteroid-Delta(8),Delta(7)-isomerase, sequence (Q15125 whole entry): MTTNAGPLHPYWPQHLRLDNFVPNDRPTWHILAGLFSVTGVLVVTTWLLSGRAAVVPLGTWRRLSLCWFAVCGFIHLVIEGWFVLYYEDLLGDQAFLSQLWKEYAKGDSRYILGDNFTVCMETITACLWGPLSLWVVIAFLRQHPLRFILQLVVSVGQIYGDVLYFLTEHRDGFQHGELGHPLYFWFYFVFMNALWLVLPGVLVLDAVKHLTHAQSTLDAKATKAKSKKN

| SMILES | IC50 [nM] |
| --- | --- |
| Cn1nc(C2CCCCC2)cc1S(=O)(=O)N1CC2(CN(C3CCOCC3)C2)C1 | < 15 |
| Cc1cc(C(F)(F)F)nc(C)c1S(=O)(=O)N1CC2(CN(Cc3ccn(C)n3)C2)C1 | < 15 |
| Cn1nc(-c2ccccc2)cc1S(=O)(=O)N1CC2(CN(C3CCOCC3)C2)C1 | < 15 |
| CCc1cnccc1CN1CC2(C1)CN(S(=O)(=O)c1ccc(C(F)(F)F)nc1C)C2 | < 15 |
| Cc1nc(C(F)(F)C(F)(F)F)ccc1S(=O)(=O)N1CC2(CN(C3CCOCC3)C2)C1 | < 15 |
| Cn1nc(C2CCC2)cc1S(=O)(=O)N1CC2(CN(C3CCOCC3)C2)C1 | < 15 |
